Assays:
ZAP70 = assay: TCR signaling, pZAP70 western blot in CD3/CD28 activated T-cells; assay type: cell-based, human; settings: CD3/CD28 bead activation 0-4 h, pZAP70 normalized to ZAP70
Description: Purified T-cells were plated in 6-well plates (2.5×10^6 cells/well, 2.5 mL T-cell medium) and were activated with CD3/CD28 beads (20 μL beads/well, Miltenyi Biotec, San Diego, Calif.) at 37 ° C. for 0-4 h. At the indicated time, samples were then harvested, washed in PBS, lysed with RIPA buffer (Thermo Scientific, containing DNAse and protease/phosphatase inhibitors), and snap frozen on dry ice followed by storage at −80 ° C. Cell lysates (˜3 μg/sample determined by BCA assay) were run on SDS-PAGE and examined by western blot on nitrocellulose membranes with anti-pZAP70 antibody (Cell Signaling Technologies). Briefly, blots were blocked for 1 h at room temperature in 5% milk in TBST (TBST from Cell Signling Technologies), rinsed with TBST and then incubated with primary antibody (anti-pZAP70 1:1000 in 5% BSA in TBST) at 4 ° C. overnight. Blots were washed 3× with TBST and probed with HRP-conjugated secondary antibodies for 1 hr at RT (1:2000 in 5% non-fat milk in TBST) followed by washing (3×TBST) and detection using Cell Signaling Elite ECL as per manufacturer instructions. Blots were scanned using an Amersham™ 600 imager (GE Healthcare). Once imaged, blots could be stripped and reprobed for additional markers using other primary antibodies. […]

CMV reactive human PMBCs = assay: In vitro 2FF and anti-PD1 antibody combination in human PBMCs (IFNγ, IL12p70); settings: T-cells matured with 100-200 μM 2FF, co-culture with DCs, 5 μg/mL CMV antigen
regulatory T-cells = assay: Regulatory T-cell and FOXp3 analysis in T-cell cultures (FACS); assay type: cell-based, human; settings: T-cell culture
Description: Regulatory T-cells in cultures were identified using the Human Regulatory T-cell Cocktail (BD Pharmingen™) and analyzed using FACS. Briefly, cells were washed into BD stain buffer (BSA) with human Fc block (EMD Millipore) and incubated on ice for 30 min. Cells were then stained with fluorescently labeled Human Regulatory T-cell Cocktail (BD Pharmingen™, 1:100 in BD stain buffer (BSA)) or with appropriate isotype controls (ice, dark, 40 min). Cells were then washed twice in BD stain buffer (BSA) and analyzed on an LSRII flow cytometer. Regulatory T-cells were identified as CD4+, CD25+ and CD127 LOW.
T-cells were prepared in the same manner as for intracellular staining as above, where they were fixed and permeabilized and stained with an anti-FOXp3 antibody (BD Biosciences) and analyzed by FACS. In brief, after incubation in BD stain buffer (FBS) with Human Fc block (Miltenyi Biotec) on ice for 30 min as described previously, cells were stained with anti-CD4 antibody for 20 min in the dark (RT). An equal volume of BD stain buffer (FBS) was added and samples were spun and washed once in BD stain buffer (FBS) followed by resuspension in cold BD Cytofix™ fixation buffer for 30 min at RT. Cells were pelleted washed twice in BD stain buffer (FBS), resuspended, and incubated in BD Perm/Wash™ buffer at RT for 30 min. […]

4T1 cells = assay: 4T1 mouse tumor study, tumor infiltrating immune cells; assay type: in vivo, balb/c mice; settings: 4T1 tumors, 20 mM in drinking water
Description: To evaluate the effect of 2FF treatment on tumor infiltrating immune cells balb/c mice were implanted with 4T1 cells (2×10^4 injected sc.) and on the same day started on 20 mM 2FF drinking water. On day 19 (when tumors were approximately ˜250-300 mm^3) or day 28 (when tumors were ˜800-1000 mm^3) tumors were removed, finely minced with a razor blade and suspend in 5 mL cold disassociation buffer (DMEM (high glucose) media, 5% FBS, 1 M HEPES, 2 mg/mL collagenase D (Roche), 0.1 mg/mL DNAse I (50 mg/mL stock in 20 mM Tris-HCL (ph7.5), 1 mM MgCl2, 50% glycerol) and transferred to a Miltenyi C-tube. GentleMACS was run on each tube and the tubes incubated at 37° C. for 40 minutes with continuous rotation. GentleMACS was then run twice and the tubes quickly spun down to collect the tumor in the bottom of the tube. The tube contents was then passed through a 70 μm mesh filter into a 50 mL falcon tube using the rubber stopper of a syringe to gently dissociate the tissue. The filter was washed with 5 mL of cold enzyme inhibitor buffer (DMEM (high glucose), 0.25 M EDTA) and the tube spun down, supernatant discarded and the samples re-suspend in PBS. Cells were then stained with eFluor®506 viability dye (eBioscience) following the manufactures instructions. Cells were washed twice in FACS staining buffer (0.5% FBS, 0.05% NaN3) and immune phenotyped with three different panels of antibodies, each containing an antibody against CD45 to identify immune cells. The cells phenotyped for dendritic cell antigens were stained with the desired antiboides for 30 minutes in the dark on ice, washed twice in staining buffer and resuspended in 1:4 PBS:fixation buffer (Biolgend) and stored at 4° C. overnight. The following day cells were washed in FACS stain buffer and analyzed on the LSRII flow cytometer. The cells phenotyped for T regulatory cells were first stained with the desired antibodies against cell surface antigens for 30 minutes in the dark on ice. […]

## C[C@@H]1OC(O)[C@@H](F)[C@H](O)[C@@H]1O (stereo partly drawn) [2-deoxy-2-fluoro-L-fucose]
ZAP70
  Zap70 phosphorylation in treated T-cells compared to naive cells: significantly more phosphorylated and remains phosphorylated for a longer period of time
CMV reactive human PMBCs
  antigen specific T cell response (IFNγ, IL12p70) of 2FF matured T-cells vs control cell: elevated antigen specific T cell response
Regulatory T-cells; CD4+, CD25+, CD127 LOW
  regulatory T-cell populations (percent of total cells): decrease in regulatory T-cell populations
Regulatory T-cells; gated on CD4+
  expression of FOXp3+ in treated T-cells: decreased expression of FOXp3+
4T1 cells; day 19 after implantation
  T regulatory cells in tumor: significantly decreased T regulatory cells
  dendritic cells in tumor: increased dendritic cells which are more activated
4T1 cells; day 28 after implantation
  memory and effector T cells in tumor: increased memory and effector T cells
